According to patent publication US11419336B2, “Herbicidal combination” (UPL LTD, priority 2017, dated 2022):

Experiments:
[1] = system: Digitaria sanguinalis; assay: Field trial, burndown weed control on grasses; format: in vivo; settings: g ai/ha: saflufenacil 140, metribuzin 1150, pendimethalin 500 alone
Protocol: (§1) Studies were conducted to compare the weed controlling activity of the combination of saflufenacil, a triazine herbicide and pendimethalin. […] Any difference between the observed and “expected” efficacy could be attributed to synergy between the compounds in the control of a broad spectrum of weeds. The expected efficacy of a combination of saflufenacil, a triazine herbicide and an pendimethalin was calculated using the well-established Colby method.
(§2) In the Colby method, the expected (or predicted) response of a combination of herbicides is calculated by taking the product of the observed response for each individual component of the combination when applied alone divided by 100 and subtracting this value from the sum of the observed response for each component when applied alone. An unexpected enhancement in efficacy of the combination is then determined by comparing the observed response of the combination to the expected (or predicted) response as calculated from the observed response of each Individual component alone. If the observed response of the combination is greater than the expected (or predicted) response, or stated conversely, if the difference between the observed and expected response is greater than zero, then the combination is said to be synergistic or unexpectedly effective. (Colby, S. R., Weeds, 1967(15), p. 20-22) The Colby method requires only a single dose of each herbicide applied alone and the mixture of both doses.
(§3) The weed control activity of the individual herbicides of the invention and their combinations were evaluated on weeds such as those belonging to Echinochloa colona, Digitaria sanguinalis, Amaranthus viridis, Commelina benghalensis, and Cyperus rotundus. The trial was carried out in Randomized Complete Block (RCB) method. Each trial was replicated four times and conducted under GEP guidelines. Application volumes were varied for each mixture. Such field trials were carried out at various locations so as to generate independent data, the locations were chosen randomly across India. Saflufenacil, metribuzin and pendimethalin were sprayed according to their recommended dosage.
(§4) The following formula was used to calculate the expected activity of mixtures containing three active ingredients, A, B and C:
(§5) A=observed efficacy of active ingredient A at the same concentration as used in the mixture.
(§6) B=observed efficacy of active ingredient B at the same concentration as used in the mixture.
(§7) C=observed efficacy of active ingredient C at the same concentration as Used in the mixture.

[2] = system: Echinochloa colona; assay: Field trial, burndown weed control on grasses; format: in vivo; settings: g ai/ha: saflufenacil 140, metribuzin 1150, pendimethalin 500 alone
Protocol: as §1, §2, §3, §4, §5, §6, §7

[3] = system: Eleucine indica; assay: Field trial, burndown weed control on grasses; format: in vivo; settings: g ai/ha: saflufenacil 140, metribuzin 1150, pendimethalin 500 alone, mixture 140 + 1150 + 500
Protocol: as §1, §2, §3, §4, §5, §6, §7

[4] = system: Cyperus rotundus; assay: Field trial, burndown weed control on sedges; format: in vivo; settings: g ai/ha: saflufenacil 140, metribuzin 1150, pendimethalin 500 alone, mixture 112 + 920 + 571
Protocol: Studies were conducted to compare the weed controlling activity of the combination of saflufenacil, a triazine herbicide and pendimethalin. […] Any difference between the observed and “expected” efficacy could be attributed to synergy between the compounds in the control of a broad spectrum of weeds. The expected efficacy of a combination of saflufenacil, a triazine herbicide and an pendimethalin was calculated using the well-established Colby method. […] An unexpected enhancement in efficacy of the combination is then determined by comparing the observed response of the combination to the expected (or predicted) response as calculated from the observed response of each Individual component alone. If the observed response of the combination is greater than the expected (or predicted) response, or stated conversely, if the difference between the observed and expected response is greater than zero, then the combination is said to be synergistic or unexpectedly effective. (Colby, S. R., Weeds, 1967(15), p. 20-22) The Colby method requires only a single dose of each herbicide applied alone and the mixture of both doses. The weed control activity of the individual herbicides of the invention and their combinations were evaluated on weeds such as those belonging to Echinochloa colona, Digitaria sanguinalis, Amaranthus viridis, Commelina benghalensis, and Cyperus rotundus. The trial was carried out in Randomized Complete Block (RCB) method. Each trial was replicated four times and conducted under GEP guidelines. Application volumes were varied for each mixture. Such field trials were carried out at various locations so as to generate independent data, the locations were chosen randomly across India. Saflufenacil, metribuzin and pendimethalin were sprayed according to their recommended dosage. The following formula was used to calculate the expected activity of mixtures containing three active ingredients, A, B and C: [formula] • Where A=observed efficacy of active ingredient A at the same concentration as used in the mixture. B=observed efficacy of active ingredient B at the same concentration as used in the mixture. C=observed efficacy of active ingredient C at the same concentration as Used in the mixture.

[5] = system: Digera sp.; assay: Field trial, burndown weed control on broadleaf weeds; format: in vivo; settings: g ai/ha: saflufenacil 140, metribuzin 1150, pendimethalin 500 alone, mixture 112 + 920 + 571
Protocol: as §1, §2, §3, §4, §5, §6, §7

[6] = system: Eleucine indica; assay: Field trial, burndown weed control on grasses; format: in vivo; settings: 15 DAA; g ai/ha: saflufenacil 140, metribuzin 1150, pendimethalin 500 alone; mixture 112 + 920 + 571
[7] = system: weeds; settings: saflufenacil alone; cited from earlier work
[8] = 15 DAA, mixture 112 + 920 + 571
[9] = 15 DAA, mixture 140 + 1150 + 500
[10] = Table 3, 30 DAA, mixture 140 + 1150 + 500
[11] = Table 4, 30 DAA, mixture 140 + 1150 + 500

SMILES	% Weed control Burn Down Symptoms Generation, Digitaria sanguinalis, Actual [1, 8]	% Weed control Burn Down Symptoms Generation, Digitaria sanguinalis, Actual [1, 9]	% Weed control Burn Down Symptoms Generation, Digitaria sanguinalis, Actual [1, 10]	% Weed control Burn Down Symptoms Generation, Digitaria sanguinalis, Actual [1, 11]	% Weed control Burn Down Symptoms Generation, Echinochloa colona, Actual [2, 8]	% Weed control Burn Down Symptoms Generation, Echinochloa colona, Actual [2, 9]	% Weed control Burn Down Symptoms Generation, Echinochloa colona, Actual [2, 10]	% Weed control Burn Down Symptoms Generation, Echinochloa colona, Actual [2, 11]	% Weed control Burn Down Symptoms Generation, Eleucine indica, Actual ([3]; 15 DAA)	% Weed control Burn Down Symptoms Generation, Eleucine indica, Actual ([3]; Table 3, 30 DAA)	% Weed control Burn Down Symptoms Generation, Eleucine indica, Actual ([3]; Table 4, 30 DAA)	% Weed control Burn Down Symptoms Generation, Cyperus rotundus at 15 DAA, Actual [4]	% Weed control Burn Down Symptoms Generation, Cyperus rotundus at 30 DAA, Actual [4]	% Weed control Burn Down Symptoms Generation, Digera sp. at 15 DAA, Actual [5]	% Weed control Burn Down Symptoms Generation, Digera sp. at 30 DAA, Actual [5]	% Weed control Burn Down Symptoms Generation, Eleucine indica, Actual [6]	Efficacy in weed control beyond 30 days after treatment [7]
CSc1nnc(C(C)(C)C)c(=O)n1N [Metribuzin, 4-amino-6-tert-butyl-4,5-dihydro-3-methylthio-1,2,4-triazin-5-one]	13.3%	13.3%	10%	10%	6.7%	6.7%	10%	10%	8.3%	5.7%	5.7%	6.7%	8.3%	8.3%	8.3%	8.3%	–
CCC(CC)Nc1c([N+](=O)[O-])cc(C)c(C)c1[N+](=O)[O-] [Pendimethalin, N-(1-ethylpropyl)-2,6-dinitro-3,4-xylidine]	56.7%	56.7%	50%	50%	58.3%	58.3%	53.3%	53.3%	46.7%	45%	45%	31.7%	25%	66.7%	7.0%	46.7%	–
CC(C)N(C)S(=O)(=O)NC(=O)c1cc(-n2c(=O)cc(C(F)(F)F)n(C)c2=O)c(F)cc1Cl [Saflufenacil, N′-{2-chloro-4-fluoro-5-[1,2,3,6-tetrahydro-3-methyl-2,6-dioxo-4-(trifluoromethyl)pyrimidin-1-yl]benzoyl}-N-isopropyl-N-methylsulfamide]	56.7%	56.7%	13.3%	13.3%	8.3%	8.3%	13%	13%	13.3%	9.3%	9.3%	15%	20%	69.7%	68.3%	13.3%	reduced efficacy
